Some test systems named below: HL-60; COLO 205; UO-31; PC-3; SNB-75; Hs-578T; UACC-257; SF-539; 786-0; CAKI-1; IGROV-1; SF-268; K562; NCI/ADR-RES; HT-29; MOLT-4; SK-MEL-28.
Common to all, as to assay: growth of human tumour cells (NCI), 48 h

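Test compounds were applied to cells in 96-well plates for 48 hours at 5 doses. Here, GI50 denotes the concentration required for 50% inhibition of growth.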 Active and inactive are the calls of the source. Cut-off read from the data, not from the text of the source: active = GI50 up to about 1.1 µM and inactive = higher. A value given as a limit tells only on which side of the number the result lay.

As to `Cc1ccc(OCC2OC(n3cnc4c(Cl)nc(Nc5cc(Cl)cc(Cl)c5)nc43)CC2Oc2ccc(C)cc2)cc1` (centres undefined), the GI50 was > 100 µM (inactive) in the assay on HL-60; > 100 µM (inactive) in the assay with COLO 205; > 100 µM (inactive) in the assay with UO-31; > 100 µM (inactive) in the assay with PC-3; 17.4 µM (inactive) in the assay with SNB-75; > 100 µM (inactive) in the assay on Hs-578T. The GI50 in the assay on UACC-257, in the assay on SF-539, in the assay with 786-0, in the assay with CAKI-1, in the assay on IGROV-1 and in the assay with SF-268 was > 100 µM (inactive) throughout. Moreover, the GI50 in the assay with K562, with NCI/ADR-RES, in the assay with HT-29, with MOLT-4 and in the assay with SK-MEL-28 was > 100 µM (inactive) in each case.
As to `Cc1ccc2c(c1)C(C(=O)N[C@@H]1C(=O)N3[C@@H]1SC(C)(C)[C@@H]3C(=O)O)OCCC2` (some centres undefined), the GI50 in the assay on HL-60, in the assay with COLO 205, in the assay on UO-31, in the assay on PC-3, with SNB-75 and in the assay with Hs-578T was > 100 µM (inactive) in each case. Moreover, the GI50 in the assay with UACC-257, in the assay on SF-539, in the assay on 786-0, with CAKI-1, with IGROV-1 and with SF-268 was > 100 µM (inactive) in each case. The GI50 with K562, with NCI/ADR-RES, in the assay with HT-29, with MOLT-4 and in the assay on SK-MEL-28 was > 100 µM (inactive) throughout.
As to `CCOC(=O)C(C(=O)OCC)=C1NC2(c3ccccc3Nc3ccc(C)cc32)C(C#N)S1` (centres undefined), the GI50 was 13.1 µM (inactive) with HL-60; 4.04 µM (inactive) in the assay on COLO 205; 6.28 µM (inactive) in the assay on UO-31; 3.56 µM (inactive) in the assay with PC-3; 8.55 µM (inactive) with SNB-75; 14.2 µM (inactive) in the assay on Hs-578T. For the same molecule, the GI50 was 11.3 µM (inactive) in the assay with UACC-257; 3.72 µM (inactive) in the assay with SF-539; 6.79 µM (inactive) with 786-0; 11.8 µM (inactive) in the assay on CAKI-1; 7.36 µM (inactive) in the assay on IGROV-1; 9.12 µM (inactive) in the assay on SF-268. The GI50 in the assay on K562 was 4.9 µM (inactive); in the assay on NCI/ADR-RES, 5.2 µM (inactive); with HT-29 it was 3.56 µM (inactive); in the assay with MOLT-4 it was 2.4 µM (inactive); with SK-MEL-28, 18.2 µM (inactive).
Take `CCOC(=O)c1sc2c(c1OC(=O)c1ccco1)c(=O)n(-c1ccccc1)c(=S)n2-c1ccccc1`: the GI50 with HL-60 is 24.9 µM (inactive); in the assay on COLO 205, 19.1 µM (inactive); with UO-31, 1.04 µM (active); with PC-3, 21.4 µM (inactive); with SNB-75, 25.9 µM (inactive); with Hs-578T, 27.5 µM (inactive). For the same molecule, the GI50 was 90.2 µM (inactive) with UACC-257; 30.7 µM (inactive) in the assay on SF-539; 28.9 µM (inactive) in the assay with 786-0; 34.3 µM (inactive) with CAKI-1; 17.9 µM (inactive) with IGROV-1; 46.1 µM (inactive) in the assay with SF-268. In addition, the GI50 is 30.4 µM (inactive) in the assay with K562; 21.4 µM (inactive) in the assay on NCI/ADR-RES; 55.2 µM (inactive) with HT-29; 17.2 µM (inactive) with MOLT-4; 60.5 µM (inactive) in the assay on SK-MEL-28.
Regarding `COc1cccc(C2c3cc4c(cc3OC(Nc3ccccc3)C2C)OCO4)c1O` (centres undefined), the GI50 in the assay with HL-60 is 9.93 µM (inactive); in the assay on COLO 205 it was 4.3 µM (inactive); with UO-31 it was 7.06 µM (inactive); in the assay with PC-3, 4.14 µM (inactive); in the assay with SNB-75 it was 5.6 µM (inactive); in the assay with Hs-578T, 5.81 µM (inactive). Besides, the GI50 in the assay on UACC-257 was 10.9 µM (inactive); with SF-539, 4.07 µM (inactive); with 786-0, 9.08 µM (inactive); in the assay with CAKI-1 it was 13.5 µM (inactive); in the assay with IGROV-1 it was 8.95 µM (inactive); in the assay on SF-268 it was 12.2 µM (inactive). For the same molecule, the GI50 with K562 is 2.83 µM (inactive); with NCI/ADR-RES, 7.5 µM (inactive); in the assay with HT-29 it was 5.74 µM (inactive); in the assay with MOLT-4, 3.3 µM (inactive); in the assay with SK-MEL-28, 7.21 µM (inactive).
For the molecule `Cn1c(=O)c2ccccc2[n+]2c(-c3cccc([N+](=O)[O-])c3)csc12`, the GI50 is 23 µM (inactive) in the assay on HL-60; > 100 µM (inactive) in the assay with COLO 205; > 100 µM (inactive) in the assay on UO-31; 50.5 µM (inactive) in the assay with PC-3; 12.9 µM (inactive) with SNB-75; 18.7 µM (inactive) in the assay with Hs-578T. The GI50 is > 100 µM (inactive) in the assay with UACC-257; 59.6 µM (inactive) with SF-539; 54.3 µM (inactive) with 786-0; 73.5 µM (inactive) in the assay on CAKI-1; 68.1 µM (inactive) in the assay with IGROV-1; 26.5 µM (inactive) with SF-268. In addition, the GI50 in the assay with K562 was 36.7 µM (inactive); in the assay on NCI/ADR-RES it was 9.51 µM (inactive); in the assay on HT-29 it was 41.3 µM (inactive); in the assay with MOLT-4 it was 24.2 µM (inactive); in the assay with SK-MEL-28, > 100 µM (inactive).
Turning to `CC(C)CCCC(C)[C@H]1CC[C@H]2n3c(nnc3-c3ccccc3)CCC[C@]12C` (some centres undefined), the GI50 in the assay with HL-60 was 3.54 µM (inactive); in the assay with COLO 205, 3.21 µM (inactive); in the assay with UO-31, 10.4 µM (inactive); in the assay on PC-3 it was 9.33 µM (inactive); in the assay on SNB-75, 17.5 µM (inactive); with Hs-578T, 18.4 µM (inactive). Also, the GI50 in the assay with UACC-257 was 13.3 µM (inactive); in the assay on SF-539 it was 11.9 µM (inactive); with 786-0, 14.6 µM (inactive); in the assay on CAKI-1 it was 14 µM (inactive); in the assay with IGROV-1, 5.74 µM (inactive); in the assay on SF-268, 12.7 µM (inactive). The GI50 in the assay on K562 is 3.8 µM (inactive); with NCI/ADR-RES, 9.93 µM (inactive); in the assay with HT-29, 17.5 µM (inactive); in the assay with MOLT-4 it was 3.96 µM (inactive); in the assay on SK-MEL-28, 16.9 µM (inactive).
Take `Cc1nn2c(=O)c([N+](=O)[O-])c(/C=C/c3ccco3)nc2s1`: the GI50 in the assay with HL-60 was 30.8 µM (inactive); in the assay on COLO 205, 61.4 µM (inactive); with UO-31, 58.7 µM (inactive); in the assay with PC-3, 68.2 µM (inactive); in the assay on SNB-75, 31.5 µM (inactive); with Hs-578T, 27.8 µM (inactive). Besides, the GI50 with UACC-257 is 87.5 µM (inactive); with SF-539, 47.4 µM (inactive); in the assay with 786-0, 76 µM (inactive); in the assay with CAKI-1, 52.6 µM (inactive); in the assay on IGROV-1, 51.8 µM (inactive); in the assay on SF-268, 36.4 µM (inactive). For the same molecule, the GI50 in the assay with K562 was 36.6 µM (inactive); with NCI/ADR-RES, 46.9 µM (inactive); in the assay with HT-29, 56.1 µM (inactive); in the assay on MOLT-4 it was 31.7 µM (inactive); in the assay on SK-MEL-28, 48.6 µM (inactive).
For the molecule `ClCc1nc2cc(Cl)ccc2o1`, the GI50 in the assay with HL-60 was 2.49 µM (inactive); in the assay on COLO 205, 2.65 µM (inactive); in the assay with UO-31, 1.02 µM (active); in the assay with PC-3, 5.15 µM (inactive); with SNB-75, 10.9 µM (inactive); in the assay on Hs-578T, 13.7 µM (inactive). Moreover, the GI50 is 9.16 µM (inactive) with UACC-257; 5.51 µM (inactive) in the assay on SF-539; 1.67 µM (inactive) in the assay on 786-0; 1.65 µM (inactive) in the assay on CAKI-1; 1.61 µM (inactive) in the assay with IGROV-1; 7.98 µM (inactive) with SF-268. Also, the GI50 was 2.56 µM (inactive) with K562; 20.3 µM (inactive) in the assay with NCI/ADR-RES; 2.54 µM (inactive) in the assay on HT-29; 2.19 µM (inactive) with MOLT-4; 4.44 µM (inactive) with SK-MEL-28.
Take `COc1ccc(-c2c3c(n(C4OC(COC(C)=O)C(OC(C)=O)C(OC(C)=O)C4OC(C)=O)c(=S)c2C#N)CCC3)cc1` (centres undefined): the GI50 was > 100 µM (inactive) in the assay on HL-60; 86.9 µM (inactive) with COLO 205; 81.3 µM (inactive) with UO-31; > 100 µM (inactive) in the assay on PC-3; > 100 µM (inactive) in the assay on SNB-75; > 100 µM (inactive) in the assay on Hs-578T. Moreover, the GI50 in the assay on UACC-257, in the assay with SF-539, with 786-0, in the assay on CAKI-1, with IGROV-1 and in the assay with SF-268 was > 100 µM (inactive) throughout. Also, the GI50 in the assay on K562, with NCI/ADR-RES, in the assay with HT-29, with MOLT-4 and with SK-MEL-28 was > 100 µM (inactive) throughout.
Take `CC1=Nc2c(C#N)ncn2N=C(C)C1`: the GI50 in the assay with HL-60, with COLO 205, in the assay with UO-31, in the assay with PC-3, with SNB-75 and in the assay on Hs-578T was > 100 µM (inactive) each time. Also, the GI50 in the assay with UACC-257, with SF-539, in the assay with 786-0, with CAKI-1, with IGROV-1 and in the assay on SF-268 was > 100 µM (inactive) in each case. In addition, the GI50 with K562, in the assay on NCI/ADR-RES, in the assay on HT-29, in the assay with MOLT-4 and in the assay with SK-MEL-28 was > 100 µM (inactive) in each case.
Consider `O=C(O)CS(=O)(=O)C(c1ccccc1)c1ccccc1`, for which the GI50 in the assay with HL-60, with COLO 205, with UO-31, in the assay on PC-3, in the assay with SNB-75 and in the assay on Hs-578T was > 100 µM (inactive) in each case. The GI50 with UACC-257, with SF-539, in the assay with 786-0, in the assay on CAKI-1, in the assay on IGROV-1 and with SF-268 was > 100 µM (inactive) each time. Besides, the GI50 in the assay with K562, with NCI/ADR-RES, with HT-29, in the assay on MOLT-4 and in the assay on SK-MEL-28 was > 100 µM (inactive) each time.

Values taken from ChEMBL document CHEMBL1201862, “PubChem BioAssay data set” (2004).
